Toxic doses and inconclusive results are not listed.
System: L1210 leukemia ip in BDF1 mice, survival T/C
Experiment: NCI In Vivo Anticancer Drug Screen. Data for tumor model L1210 Leukemia (intraperitoneal) in B6D2F1 (BDF1) mice
Conditions: endpoint: mean survival time, higher = longer survival
Procedure, shortened: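 Transplanted-tumor mice were given test agent; controls received vehicle only. Survival readings from the two groups were divided (treated over control).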

[1] = dose: 100.0 mg/kg/injection, schedule: Q01DX009 (ip), vehicle: saline with Tween-80
[2] = dose: 200.0 mg/kg/injection, schedule: Q01DX009 (ip), vehicle: saline with Tween-80
[3] = dose: 400.0 mg/kg/injection, schedule: Q01DX009 (ip), vehicle: saline with Tween-80
[4] = dose: 100.0 mg/kg/injection, schedule: Q01DX001 (ip), vehicle: saline
[5] = dose: 200.0 mg/kg/injection, schedule: Q01DX001 (ip), vehicle: saline
[6] = dose: 400.0 mg/kg/injection, schedule: Q01DX001 (ip), vehicle: saline
[7] = dose: 100.0 mg/kg/injection, schedule: Q01DX009 (ip), vehicle: saline
[8] = dose: 50.0 mg/kg/injection, schedule: Q01DX009 (ip), vehicle: saline

## COC(=O)c1c(Cl)c(Cl)c(C(=O)OC)c(Cl)c1Cl
[1]
  T/C: 91 % of control
dose: 100.0 mg/kg/injection, schedule: Q04DX003 (ip), vehicle: saline with Tween-80
  T/C: 90 % of control
[2]
  T/C: 92 % of control
dose: 200.0 mg/kg/injection, schedule: Q04DX003 (ip), vehicle: saline with Tween-80
  T/C: 90 % of control
[3]
  T/C: 92 % of control
dose: 400.0 mg/kg/injection, schedule: Q04DX003 (ip), vehicle: saline with Tween-80
  T/C: 95 % of control

## C[CH2][Pb]([CH2]C)([CH2]C)[O]C(=O)C=C1CCCC1
dose: 2.5 mg/kg/injection, schedule: Q01DX009 (ip), vehicle: saline with Tween-80
  T/C: 101 % of control

## CCC1(C)N=C(N)Nc2nc3ccccc3n21 (stereo unspecified)
[4]
  T/C: 96 % of control
[5]
  T/C: 94 % of control

## O=C(Nc1cccc2ncccc12)c1ccc(C(=O)Nc2cccc3ncccc23)cc1
[4]
  T/C: 101 % of control
[5]
  T/C: 93 % of control
[6]
  T/C: 91 % of control

## CC1CC(C)NC(=O)N1 (stereo unspecified)
dose: 50.0 mg/kg/injection, schedule: Q04DX002 (ip), vehicle: saline with Tween-80
  T/C: 98 % of control
dose: 100.0 mg/kg/injection, schedule: Q04DX002 (ip), vehicle: saline with Tween-80
  T/C: 94 % of control
dose: 200.0 mg/kg/injection, schedule: Q04DX002 (ip), vehicle: saline with Tween-80
  T/C: 91 % of control
dose: 400.0 mg/kg/injection, schedule: Q04DX002 (ip), vehicle: saline with Tween-80
  T/C: 98 % of control

## CSc1nc(C)c(Br)c(Nc2ccc(C(N)=O)cc2)n1
dose: 87.5 mg/kg/injection, schedule: Q01DX009 (ip), vehicle: Klucel (hydroxypropylcellulose) (HPC)
  T/C: 94 % of control
dose: 175.0 mg/kg/injection, schedule: Q01DX009 (ip), vehicle: Klucel (hydroxypropylcellulose) (HPC)
  T/C: 91 % of control
dose: 350.0 mg/kg/injection, schedule: Q01DX009 (ip), vehicle: Klucel (hydroxypropylcellulose) (HPC)
  T/C: 101 % of control

## CC1N=C(c2ccc(NC(=O)c3ccc(C(=O)Nc4ccc(C5=NC(C)C(C)N5)cc4)cc3)cc2)NC1C (stereo unspecified)
dose: 0.5 mg/kg/injection, schedule: Q01DX015 (ip), vehicle: water
  T/C: 104 % of control
dose: 0.75 mg/kg/injection, schedule: Q01DX001 (ip), vehicle: water
  T/C: 101 % of control
dose: 1.0 mg/kg/injection, schedule: Q01DX015 (ip), vehicle: water
  T/C: 110 % of control
dose: 1.5 mg/kg/injection, schedule: Q01DX001 (ip), vehicle: water
  T/C: 98 % of control
dose: 2.0 mg/kg/injection, schedule: Q01DX001 (ip), vehicle: water
  T/C: 106 % of control
dose: 3.0 mg/kg/injection, schedule: Q01DX001 (ip), vehicle: water
  T/C: 103 % of control
dose: 3.0 mg/kg/injection, schedule: Q01DX015 (ip), vehicle: water
  T/C: 189 % of control
dose: 4.0 mg/kg/injection, schedule: Q01DX015 (ip), vehicle: water
  T/C: 222 % of control

## CC(C)C[As](C)(=O)O
dose: 66.0 mg/kg/injection, schedule: Q01DX009 (ip), vehicle: saline
  T/C: 107 % of control
[7]
  T/C: 115 % of control
dose: 150.0 mg/kg/injection, schedule: Q01DX009 (ip), vehicle: saline
  T/C: 94 % of control

## COc1cccc(C(C)(C)COS(=O)(=O)c2ccc(C)cc2)c1
dose: 50.0 mg/kg/injection, schedule: Q01DX009 (ip), vehicle: saline with Tween-80
  T/C: 90 % of control
[1]
  T/C: 90 % of control

## CC(C)(C)C(=O)c1nn[nH]n1
[8]
  T/C: 91 % of control
[4]
  T/C: 104 % of control
[7]
  T/C: 98 % of control
[5]
  T/C: 102 % of control

## COc1cc(OC)c(NC(=O)c2c(Br)c(Br)c(Br)c(Br)c2C(=O)O)cc1Cl
dose: 100.0 mg/kg/injection, schedule: Q01DX009 (ip), vehicle: Klucel (hydroxypropylcellulose) (HPC)
  T/C: 107 % of control
dose: 200.0 mg/kg/injection, schedule: Q01DX009 (ip), vehicle: Klucel (hydroxypropylcellulose) (HPC)
  T/C: 94 % of control
dose: 400.0 mg/kg/injection, schedule: Q01DX009 (ip), vehicle: Klucel (hydroxypropylcellulose) (HPC)
  T/C: 95 % of control

## Cc1c(Cl)cccc1NC(=O)COc1ccc(Cl)cc1Cl
[1]
  T/C: 88 % of control
[2]
  T/C: 93 % of control
[3]
  T/C: 98 % of control

## Cc1ccc(S(=O)(=O)CC#CCOc2ccccc2)cc1
[8]
  T/C: 92 % of control
[4]
  T/C: 92 % of control
[7]
  T/C: 105 % of control
[5]
  T/C: 97 % of control
dose: 200.0 mg/kg/injection, schedule: Q01DX009 (ip), vehicle: saline
  T/C: 92 % of control
[6]
  T/C: 101 % of control

## Nc1nc(N)nc(CCCCCCc2nc(N)nc(N)n2)n1
dose: 50.0 mg/kg/injection, schedule: Q01DX001 (ip), vehicle: carboxymethylcellulose (CMC)
  T/C: 88 % of control
dose: 100.0 mg/kg/injection, schedule: Q01DX001 (ip), vehicle: carboxymethylcellulose (CMC)
  T/C: 88 % of control
dose: 200.0 mg/kg/injection, schedule: Q01DX001 (ip), vehicle: carboxymethylcellulose (CMC)
  T/C: 98 % of control

— PubChem BioAssay AID248 (DTP/NCI, 2004)
